Test results from US7530461B2, “Esters of 5-aminolevulinic acid as photosensitizing agents in photochemotherapy” (PhotoCure ASA, priority 1995, dated 2009).
“Also recorded” adds a separate entry of the source.

How the values were obtained:
[1] = system: bladder carcinoma in situ (CIS) and other bladder tumor lesions; assay: HAL fluorescence detection of bladder lesions vs. white light cystoscopy; type: in vivo, human
Method: Photodynamic detection of bladder carcinoma in situ (CIS) (flat cancer lesions) after exposure to a hexyl aminolevulinate composition (8 mM HAL in PBS: 4.3 mM KH2PO4, 4.3 mM Na2HPO4, 120 mM NaCl, pH 6.0) for one hour was performed and compared to white light cystoscopy in patients with bladder cancer (FIG. 31).
About 50 ml of HAL solution was instilled into the bladder. The solution was allowed to remain in the bladder for one hour. After bladder evacuation, the bladder was inspected by using a cystoscope (Storz D-Light, Karl Storz, Tuttlingen, Germany) and mapped under white light followed by inspection and mapping of all fluorescing lesions using blue light (380-450 nm) (light of wavelength of about 405 nm could have been used as the PpIX absorption spectrum includes a maximum near 405 nm). After mapping of the lesions in white and blue light separately, biopsies and resected tissue were obtained of all lesions and suspicious areas. Finally, one biopsy from normal appearing urothelium (negative in white and blue light) was taken. Tissue material was prepared by the local pathlogist and examined by both local and a central pathologist to verify the diagnosis.
In another study, an HAL composition detected 98% of tumor lesions in patients (regardless of tumor type), whereas use of white light identified only 73% of the lesions. The HAL solution composition and instillation and cystoscopy procedure is described above. The cystoscopy findings were verified by examination (by a pathologist) of 5 random biopsies taken from each patient. There were a total of 143 verified tumors in 45 patients including carcinoma in situ (CIS) and Ta or T1 lesions. HAL cystoscopy was performed in 43 of the patients with a detection rate of 96% (43/45). White light cystoscopy was performed in 33 of the patients with a detection rate of 73% (33/45).

[2] = system: cervical intraepithelial lesions (CIN); assay: Fluorescence detection of cervical intraepithelial lesions using HAL; type: in vivo, human
Method: This study involved 32 non-pregnant women with histologically proven squamous intraepithelial lesions (CIN).
5 to 20 ml of a cold-cream containing 0.5% (w/w) HAL hydrochloride was applied locally by means of a cervical cap. Random biopsies were performed at time points ranging from 5 min to 7 hours to assess the selective accumulation of HAL, as shown by fluorescence images. Image analysis on frozen tissue sections was carried out using a Zeiss Axiophot image analysis system.
A total of 112 biopsies were obtained from 32 patients. From these biopsies approximately 2000 fluorescence images were produced. […] Immediately after the biopsies were taken, the tissue was quickly frozen in liquid nitrogen and stored at −70° C. prior to use in order to stop any formation/degradation of cellular porphyrins. Tissue sections were prepared in the dark to avoid photobleaching. The frozen tissue blocks were mounted in Tissue Tek embedding compound (BDH) and a series of sections were prepared using a cryostat. Tissue sections were mounted on glass slides and images were recorded with a grey-scale camera. A band pass filter (BP395-440 nm) was used for excitation, while a second band-pass filter was used to record the specific Pp fluorescence.

[3] = system: Human transitional cell carcinoma cells (T24); assay: Induced fluorescence in T24 cells in vitro; type: cell-based
Method: Human transitional cell carcinoma cells (T24) were used. ALA and ALA esters were dissolved in growth medium not containing serum. Fluorescence was observed using an excitation wavelength of 410 nm and detecting emission at 640 nm.

[4] = system: bladder cancer cells from patient urine; assay: Detection of bladder cancer cells in urine; type: cell-based, human; conditions: 40 μg/ml or 0.15 mM, 4 hours at 37° C., blue light 390-440 nm
Method: Urine of a patient with bladder cancer was centrifuged (1500 rpm for 5 min) and resuspended into cell growth medium containing 10% fetal calf serum and HAL hydrochloride (40 μg/ml or 0.15 mM) for 4 hours at 37° C. in the dark. The cells fluoresced under blue light (390-440 nm) after being incubated with HAL HCl (FIG. 28). […] This was confirmed by cytology.

[5] = system: basal cell carcinoma (BCC) lesions and surrounding normal skin; assay: PpIX fluorescence in human BCC and surrounding normal skin by optical-fiber based system; type: in vivo; conditions: 20% for 4 hours, topical
Method: The PpIX fluorescence in the BCC lesions and surrounding normal skin of human patients was measured in situ by optical-fiber based system after topical application of 20% free ALA and its derivatives for various time intervals.
The PpIX fluorescence ratios between BCC lesions and surrounding normal skin after topical application of ALA or its esters (20% for 4 hours), was examined using methods described in previous examples.

Compound: CCCCCCOC(=O)CCC(=O)CN.Cl [HAL, n-hexyl 5-aminolevulinate hydrochloride]
- CIS lesion detection rate as verified by biopsies ([1]; 8 mM HAL in PBS, one hour instillation, 218 patients for analysis): 97%
- carcinoma in situ lesions identified in patients with CIS lesions only ([1]; 13 patients with CIS lesions only, 12/13): 92%
- detection rate of HAL cystoscopy (patients) ([1]; another study, 43/45): 96%
- tumor lesions detected (regardless of tumor type) ([1]; another study, 143 verified tumors in 45 patients): 98%
- fluorescence of cervical lesions after topical application ([2]; 0.5% (w/w) HAL hydrochloride cold-cream, hydrochloride): excellent fluorescence; also recorded: high and homogenous fluorescence in the lesions
- adverse reactions / tolerability ([2]; 0.5% cream applied to the cervix, patients, hydrochloride): No local or systemic adverse reactions; also recorded: well tolerated
- fluorescence after 5 minutes application ([2]; 0.5% cream, 5 minutes): low
- fluorescence throughout the lesion at application times of 30 minutes and longer ([2]; 0.5% cream, 30 minutes and longer): high and homogenous fluorescence throughout the lesion
- selectivity of fluorescence for precancerous lesions ([2]; 0.5% cream, cervical biopsies of CIN lesions): excellent selectivity for precancerous lesions
- selectivity at application time more than three hours ([2]; 0.5% cream, more than three hours): the selectivity was reduced
- selectivity after 1-2 hour application ([2]; HAL 0.5% cream, 1-2 hour): excellent
- maximum fluorescence relative to the maximum induced by aminolevulinic acid ([3]; same conditions): nearly three times
- concentration inducing maximum fluorescence in cells in vitro ([3]; serum-free medium, excitation 410 nm, emission 640 nm): about 13 mM
- fluorescence of urine cells under blue light [4]: only cancer cells fluoresced
- PpIX fluorescence ratios between BCC lesions and surrounding normal skin (selectivity) compared with free ALA [5]: more selectively induce PpIX in BCC lesions than free ALA
